Measured values taken from PMC10994559 (PLOS Neglected Tropical Diseases, 2024).
“And” between values parts separate entries of the source, which are not always exact repeats. Equal entries are not always repeated. “Also recorded” adds a separate entry of the source.

Tests used:
[1] = test system: T. brucei 2T1 RNAi lines; experiment: Dose response after targeted stem-loop RNAi knockdown; type: cell-based, Trypanosoma brucei
Experimental: Selected genes with the high reads were validated by individual RNAi targeting. Briefly, gene-specific RNAi fragments of 400–600 bp were amplified with PCR primers designed with RNAit tool (S1 Table) and cloned into pRPa^iSL to generate stem-loop, ‘hairpin’ dsRNA to induce RNAi knockdown. The AscI linearized plasmid was transfected into 2T1 cells and positive colonies were selected with hygromycin (2.5 μg/ml). Positive, puromycin sensitive clones were analysed by PHT-39 dose response analysis after 24 h tetracycline induction and compared to uninduced controls and parental lines.

[2] = test system: T. brucei BSF; experiment: Cell cycle (nuclei/kinetoplast count, DAPI) after PHT-39 treatment; type: cell-based, Trypanosoma brucei; settings: 1 x EC50, 24 h
Experimental: 10^6 cells were harvested by centrifugation (1000*g) after 24 h from cultures in logarithmic growth phase and washed once with serum-free HMI-9. After fixation in 2% formaldehyde cell were applied to a glass slide and mounted with Vectashield Antifade mounting medium with 4′,6-diamidino2-phenylindole (DAPI) for fluorescence microscopy imaging on a Leica TCS SP8 WLL SMD-FLIM inverted confocal microscope. The number of nuclei (N) and kinetoplasts (K) per cell were then counted for 100 cells in each respective replicate (n = 3), allowing determination of cell cycle stage.

[3] = test system: Plasmodium falciparum; design: method as in PMID 35749989; settings: cited from earlier work
[4] = test system: T. brucei BSF proteome; experiment: Label-free LC-MS/MS proteomics after PHT-39 exposure; type: cell-based, Trypanosoma brucei
Experimental: 4 x 10^7 cells were harvested by centrifugation (1000*g) after 48 h from cultures in logarithmic growth phase and washed thrice with PBS. Samples were subjected to lysis, tryptic digest and reductive alkylation using standard procedures. LC-MS/MS was performed by the OMICS Proteomics Facility at Charles University Biocev on an UltiMate 3000 RSLCnano System (Thermo Fisher Scientific) coupled to a Orbitrap Fusion mass spectrometer (Thermo Fisher Scientific). Mass spectra were analyzed by label-free quantification using MaxQuant version 2.1.0.0 [30] searching the T. brucei brucei 927 annotated protein database (release 57) from TriTrypDB [31]. Minimum peptide length was set at seven amino acids and false discovery rates of 0.01 were calculated at the levels of peptides, proteins, and modification sites based on the number of hits against the reversed sequence database. When the identified peptide sequence set of one protein contained the peptide set of another protein, these two proteins were assigned to the same protein group. P-values were calculated, applying t-test–based statistics using Perseus. Proteomics data have been deposited to the ProteomeXchange Consortium via the PRIDE partner repository with the data set identifier PXD043204.

[5] = test system: T. brucei brucei BSF; experiment: T. brucei BSF viability, resazurin reduction; type: cell-based, Trypanosoma brucei brucei; settings: Trypanosoma brucei
[6] = test system: human hepatocyte carcinoma HepG2 cells; experiment: Cytotoxicity assay HepG2, resazurin reduction; type: cell-based
Experimental: Mammalian cell lines (J774 and HepG2) were passaged in RPMI media supplemented with MEM, Pen-Strep (1%) and 10% FCS. Cultures were kept at 37°C incubator with 5% CO2 in filter-cap flasks.
Murine macrophage cells (J774) and human hepatocyte carcinoma HepG2 cells were seeded at 0.5x10^5 cell/well in 384 well plates in triplicate, exposed to serial dilution of compounds, dispensed using an Echo 650 acoustic dispenser (Labcyte). After incubation for 72 h at 37°C, 5% CO2, cell viability was determined using fluorescence resazurin reduction assay (λEx: 550 nm; λEm: 590 nm).

[7] = 24 h tetracycline induction vs uninduced

Q: Which “Sensitivity shift after RNAi of HSP104 homolog (ClpB1) Tb927.2.5980” value [1] does the source give for `CC[C@@H](C)[C@H](c1nc2ccccc2n1Cc1cn(-c2ccc(C(F)(F)F)cc2)nn1)N1C(=O)c2ccccc2C1=O` [PHT-39] here?
A: did not elicit a significant PHT-39 sensitivity shift; also recorded: did not determine a significant sensitivity shift

Q: And the “Sensitivity shift after RNAi of nicotinamidase paralogs Tb927.9.3970 and Tb927.9.4040” value [1]?
A: did not elicit a significant PHT-39 sensitivity shift; also recorded: did not determine a significant sensitivity shift

Q: What about the “EC50 shift after RNAi of miltefosine transporter Tb927.11.3350” value [1, 7] of the same compound?
A: mild but significant EC50 increase

Q: And the “Sensitivity shift after knockdown of ESAG5” value [1, 7]?
A: very modest but significant sensitivity shift

Q: And the “Proportion of 2K1N cells, decreased to” value [2]?
A: approximately 57%

Q: And the “Proportion of 2K2N cells, decreased to” value [2]?
A: approximately 28%

Q: What about the “Mitochondrial membrane potential, P. falciparum trophozoites” value ([3]; 3 h exposure at EC50 0.64 μM) of the same compound?
A: collapse of the mitochondrial membrane potential

Q: What about the EC50 ([3]; read-out: EC50 Plasmodium falciparum intraerythrocyte stages) of the same compound?
A: 640 nM and 600 nM

Q: What about the “Abundance change FAZ localized protein Tb927.1.4280” value ([4]; 3.9 μM (1× EC50), 48 h) of the same compound?
A: 0.62 fold

Q: What about the “Abundance change Hsp104 homolog Tb927.2.5980” value ([4]; 3.9 μM (1× EC50), 48 h) of the same compound?
A: 1.4 fold

Q: What about the “Abundance change PIP39 (Tb927.9.6090)” value ([4]; 3.9 μM (1× EC50), 48 h) of the same compound?
A: 1.6 fold

Q: And the “Abundance change axonemal protein SAXO (Tb927.8.6240)” value ([4]; 3.9 μM (1× EC50), 48 h)?
A: 0.65 fold

Q: What about the “PHT-39 ratio (protein abundance)” value ([4]; protein 2-oxoglutarate dehydrogenase E1 component, Tb927.11.1450) of the same compound?
A: 1.73

Q: And the “PHT-39 ratio (protein abundance)” value ([4]; protein 2-oxoglutarate dehydrogenase E1 component, Tb927.11.9980)?
A: 1.93

Q: And the “PHT-39 ratio (protein abundance)” value ([4]; protein ACS1, Tb927.7.6180)?
A: - ∞

Q: What about the “PHT-39 ratio (protein abundance)” value ([4]; protein Aconitase, Tb927.10.14000) of the same compound?
A: 1.39

Q: What about the “PHT-39 ratio (protein abundance)” value ([4]; protein CIF1 (TOEFAZ1), Tb927.11.15800) of the same compound?
A: 0.46

Q: And the “PHT-39 ratio (protein abundance)” value ([4]; protein CIF3, Tb927.10.13100)?
A: - ∞

Q: And the “PHT-39 ratio (protein abundance)” value ([4]; protein CIF4, Tb927.10.8240)?
A: 0.88

Q: What about the “PHT-39 ratio (protein abundance)” value ([4]; protein F1 alpha, Tb927.7.7430, Tb927.7.7420) of the same compound?
A: 1.31

Q: What about the “PHT-39 ratio (protein abundance)” value ([4]; protein F1 beta, Tb927.3.1380) of the same compound?
A: 1.33

Q: What about the “PHT-39 ratio (protein abundance)” value ([4]; protein F1 gamma, Tb927.10.180) of the same compound?
A: 1.23

Q: And the “PHT-39 ratio (protein abundance)” value ([4]; protein F1 p18, Tb927.5.1710)?
A: 1.90

Q: What about the “PHT-39 ratio (protein abundance)” value ([4]; protein FPRC, Tb927.10.6360) of the same compound?
A: 0.72

Q: What about the “PHT-39 ratio (protein abundance)” value ([4]; protein Fo 8, Tb927.4.3450) of the same compound?
A: ∞

Q: What about the “PHT-39 ratio (protein abundance)” value ([4]; protein Fo ATBTB1, Tb927.10.520) of the same compound?
A: 1.48

Q: What about the “PHT-39 ratio (protein abundance)” value ([4]; protein Fo ATBTB3, Tb927.11.6250) of the same compound?
A: 1.53

Q: What about the “PHT-39 ratio (protein abundance)” value ([4]; protein Fo ATBTB4, Tb927.10.9830) of the same compound?
A: 1.36

Q: And the “PHT-39 ratio (protein abundance)” value ([4]; protein Fo ATBTB6, Tb927.11.1270)?
A: 1.40

Q: What about the “PHT-39 ratio (protein abundance)” value ([4]; protein Fo ATBTB12, Tb927.5.3090) of the same compound?
A: 3.78

Q: What about the “PHT-39 ratio (protein abundance)” value ([4]; protein Fo OSCP, Tb927.10.8030) of the same compound?
A: 2.93

Q: What about the “PHT-39 ratio (protein abundance)” value ([4]; protein Fo d, Tb927.5.2930) of the same compound?
A: 1.35

Q: And the “PHT-39 ratio (protein abundance)” value ([4]; protein Fo e, Tb927.11.600)?
A: 1.09

Q: What about the “PHT-39 ratio (protein abundance)” value ([4]; protein Fo f, Tb927.3.1690) of the same compound?
A: 1.36

Q: And the “PHT-39 ratio (protein abundance)” value ([4]; protein Fo i/j, Tb927.3.2880)?
A: 1.66

Q: And the “PHT-39 ratio (protein abundance)” value ([4]; protein Fo k, Tb927.7.840)?
A: 3.17

Q: What about the “PHT-39 ratio (protein abundance)” value ([4]; protein Glutamate dehydrogenase, Tb927.9.5900) of the same compound?
A: 1.53

Q: And the “PHT-39 ratio (protein abundance)” value ([4]; protein PIP39, Tb927.9.6090)?
A: 1.62

Q: And the “PHT-39 ratio (protein abundance)” value ([4]; protein PPDK, Tb927.11.6280)?
A: ∞

Q: And the “PHT-39 ratio (protein abundance)” value ([4]; protein Proline dehydrogenase, Tb927.7.210)?
A: 1.66

Q: What about the “PHT-39 ratio (protein abundance)” value ([4]; protein SAXO, Tb927.8.6240) of the same compound?
A: 0.65

Q: And the “PHT-39 ratio (protein abundance)” value ([4]; protein Tb927.1.4280)?
A: 0.63

Q: What about the “Difference (LFQ intensity treated vs untreated)” value (from here on “Difference”) ([4]; protein Tb927.10.4770, phosphatidylinositol-4-phosphate 5-kinase, putative) of the same compound?
A: 2.042

Q: And the “Difference” value ([4]; protein Tb927.4.3450, Mitochondrial ATP synthase subunit, putative)?
A: 5.909

Q: What about the “Difference” value ([4]; protein Tb927.6.980;Tb927.6.970;Tb927.6.960;Tb927.6.1020;Tb927.6.1010, cysteine peptidase, Cathepsin L-like) of the same compound?
A: 5.36

Q: And the “Difference” value ([4]; protein Tb927.7.2660, zinc finger protein family member, putative)?
A: 3.448

Q: And the “Difference” value ([4]; protein Tb927.9.12700, phospholipase A1, putative)?
A: 3.03

Q: And the “PHT-39 ratio (protein abundance)” value ([4]; protein citrate synthase, Tb927.10.13430)?
A: 1.66

Q: What about the “PHT-39 ratio (protein abundance)” value ([4]; protein isocitrate dehydrogenase, Tb927.8.3690) of the same compound?
A: 1.46

Q: What about the “PHT-39 ratio (protein abundance)” value ([4]; protein mitochondrial malate dehydrogenase, Tb927.10.2560) of the same compound?
A: 1.32

Q: What about the “PHT-39 ratio (protein abundance)” value ([4]; protein succinyl-CoA ligase beta-chain, Tb927.10.7410) of the same compound?
A: 1.79

Q: And the “PHT-39 ratio (protein abundance)” value ([4]; protein succinyl-CoA synthetase alpha subunit, Tb927.3.2230)?
A: 1.72

Q: And the viability at 2.5 µM ([5]; 72 h, read-out: Residual viability, T.brucei (2.5 µM), BSF, 2.5 µM, 72 h)?
A: 64.9 ± 7.25%

Q: What about the viability at 25 µM ([5]; 72 h, read-out: Residual viability, T.brucei (25 µM), BSF, 25 µM, 72 h) of the same compound?
A: 2.85 ± 2.88%

Q: What about the EC50 ([5]; read-out: EC50 T. brucei BSF, dose response, triplicate, ± SD (Table 2) / ± SE (S3 Table)) of the same compound?
A: 3900 ± 1700 nM

Q: And the Selectivity ([6]; HepG2 cytotoxicity vs intramacrophage L. infantum)?
A: over 90 fold

Q: What about the EC50 ([6]; Homo sapiens, HepG2, 72 h, cytotoxicity, 72 h, read-out: EC50 (CT50) HepG2) of the same compound?
A: > 100000 nM
